Structures can show the parent of a compound that is named as a salt.
Test: in vitro
Settings: rat, gh3-tre-luc cells, AC50 (uM) modified / 1000

| Compound | CC50 at 24 h |
| --- | --- |
| CCc1nn(C)c(C(=O)NCc2ccc(C(C)(C)C)cc2)c1Cl [Tebufenpyrad] | 53.4 µM |
| Cc1ccc(N)c(C)c1 [2,4-Dimethylaniline] | > 90 µM |
| CC(C)=CCCC(C)CCO (stereo not drawn) [Citronellol] | > 100 µM |
| CC(C)(CO)C(O)C(=O)NCCCO (stereo not drawn) [Panthenol] | > 90 µM |
| Clc1ccc(Nc2nnc(Cc3ccncc3)c3ccccc23)cc1 [Vatalanib] | > 50 µM |
| COC1=C(C(=O)O)N2C(=O)[C@@H](NC(=O)[C@H](N)C3=CCC=CC3)[C@H]2SC1 [Cefroxadine] | > 50 µM |
| O=C(O)c1ccc(S(=O)(=O)N(Cl)Cl)cc1 [Halazone] | > 90 µM |
| Cc1cccc(Oc2ccccc2)c1 [1-Methyl-3-phenoxybenzene] | > 90 µM |
| CCC(C)O (stereo not drawn) [2-Butanol] | > 90 µM |
| Cc1c(Cl)cccc1Cl [2,6-Dichlorotoluene] | > 90 µM |
| CC(C)(OO)c1ccccc1 [Cumene hydroperoxide] | 79.6 µM |
| O=C(O)COc1ccc2ccccc2c1 [2-Naphthoxyacetic acid] | > 90 µM |
| COc1cc2nc(N3CCN(C(=O)c4ccco4)CC3)nc(N)c2cc1OC [Prazosin] | 8.15 µM |
| O=P(O)(O)Oc1ccccc1 [Phenyl dihydrogen phosphate] | > 90 µM |
| CCN(CC)Cc1cc(Nc2ccnc3cc(Cl)ccc23)ccc1O [Amodiaquin dihydrochloride dihydrate] | 13.5 µM |
| CCOC1Oc2ccc(OS(C)(=O)=O)cc2C1(C)C (stereo not drawn) [Ethofumesate] | > 90 µM |
| CCOP(=S)(OCC)Oc1cc(C)nc(C(C)C)n1 [Diazinon] | > 90 µM |
| CC1(C)O[C@@H]2C[C@H]3[C@@H]4C[C@H](F)C5=CC(=O)C=C[C@]5(C)[C@@]4(F)[C@@H](O)C[C@]3(C)[C@]2(C(=O)CO)O1 [Fluocinolone acetonide] | > 50 µM |
| Cc1ccc(Br)cc1 [4-Bromotoluene] | > 90 µM |
| CSCc1cnccn1 [(Methylthio)methylpyrazine] | > 200 µM |
| CC(=O)OC/C=C(\C)CCC=C(C)C [Geranyl acetate] | > 90 µM |
| COc1cc(N)ccc1C [3-Methoxy-4-methylaniline] | > 90 µM |
| CCCCOC(=O)CCCCC(=O)OCCCC [Dibutyl adipate] | > 90 µM |
| CCCCC(CC)COC(=O)/C=C\C(=O)OCC(CC)CCCC (stereo not drawn) [Bis(2-ethylhexyl) maleate] | > 90 µM |
| CN(C)C(=O)COC(=O)Cc1ccc(OC(=O)c2ccc(NC(=N)N)cc2)cc1 [Camostat mesylate] | > 50 µM |
| Clc1c(Cl)c(Cl)c(Cl)c(Cl)c1Cl [Hexachlorobenzene] | > 5 µM |

| Compound | CC50 at 24 h |
| --- | --- |
| O=C1CCCCCCCCCCCC(=O)OCCO1 [1,4-Dioxacycloheptadecane-5,17-dione] | > 90 µM |
| C[C@@]12CCC[C@H]1[C@@H]1CC[C@H]3C[C@@H](O)CC[C@]3(C)[C@H]1CC2 [5alpha-Androstan-3beta-ol] | > 50 µM |
| Cc1cn[nH]c1 [4-Methylpyrazole hydrochloride] | > 50 µM |
| O=NN1CCCCCCC1 [Nitrosoheptamethyleneimine] | > 90 µM |
| CCCCCCCCCCCCC1CO1 (stereo not drawn) [1,2-Epoxytetradecane] | > 90 µM |
| Cn1ccc2cc3c(cc21)CCN3C(=O)Nc1cccnc1 [SB 206553 hydrochloride] | > 50 µM |
| CCCCCOC(=O)CCCC [Pentyl valerate] | > 90 µM |
| C[C@@H]1C(=O)C[C@H]2[C@]3(C)CC[C@@]2([C@H](C)C(=O)O)C(=O)[C@H]13 [Santonic acid] | > 50 µM |
| CCC(CO)(CO)CO [2-Ethyl-2-(hydroxymethyl)-1,3-propanediol] | > 100 µM |
| CCC(=O)O[C@@H](O[P@](=O)(CCCCc1ccccc1)CC(=O)N1C[C@H](C2CCCCC2)C[C@H]1C(=O)O)C(C)C [Fosinopril sodium] | > 50 µM |
| CCCCN(CCO)CCCC [2-(Dibutylamino)ethanol] | > 90 µM |
| O=C1Nc2ccc(Cl)cc2C(c2ccccc2)=NC1O (stereo not drawn) [Oxazepam] | > 80 µM |
| NC[C@@H]1O[C@H](O[C@H]2[C@@H](O)[C@H](O[C@@H]3[C@@H](O)[C@H](N)C[C@H](N)[C@H]3O[C@H]3O[C@H](CO)[C@@H](O)[C@H](O)[C@H]3N)O[C@@H]2CO)[C@H](N)[C@@H](O)[C@@H]1O [Paromomycin sulfate] | > 50 µM |
| CCCCCCCCCCCCCCCCCC(=O)OCCO [2-Hydroxyethyl octadecanoate] | > 50 µM |
| Cc1ccc(C(C)c2ccc(C)c(C)c2)cc1C [1,1-Bis(3,4-dimethylphenyl)ethane] | > 90 µM |
| O=C1c2ccccc2C(=O)c2c1ccc(O)c2O [Alizarin] | > 50 µM |
| Cc1cccc(N(C)C(=S)Oc2ccc3c(c2)CCC3)c1 [Tolindate] | > 50 µM |
| Cc1cc(C(=O)NCCc2ccc(S(=O)(=O)NC(=O)NN3CCCCCC3)cc2)no1 [Glisoxepide] | > 50 µM |
| Cc1ccc(N)cc1O [5-Amino-2-methylphenol] | > 90 µM |
| COC(=O)NS(=O)(=O)c1ccc(N)cc1 [Asulam] | > 90 µM |
| CC(C)(C)C(=O)CCl [1-Chloropinacolone] | > 90 µM |
| CCN(CC)CCCN(c1ccccc1)C1Cc2ccccc2C1 [Aprindine hydrochloride] | 2.3 µM |
| C[C@@H](CN1CC(=O)NC(=O)C1)N1CC(=O)NC(=O)C1 [Dexrazone] | > 50 µM |
| Cc1ccc2c(c1)C(=O)c1ccccc1C2=O [2-Methylanthraquinone] | > 90 µM |
| O=C(O)CCCCC(=O)O [Hexanedioic acid] | > 90 µM |
| COc1cc(NCCCC(C)N)c2ncccc2c1 (stereo not drawn) [Quinocide] | 15.1 µM |

| Compound | CC50 at 24 h |
| --- | --- |
| CC(=O)OCC1=C(C(=O)O)N2C(=O)[C@@H](N)[C@H]2SC1 [7-Aminocephalosporanic acid] | > 20 µM |
| CCn1c2ccccc2c2cc(N)ccc21 [3-Amino-9-ethylcarbazole hydrochloride] | > 90 µM |
| C[C@H]1[C@H](OC(=O)CCC(=O)O)O[C@@H]2O[C@@]3(C)CC[C@H]4[C@H](C)CC[C@@H]1[C@@]24OO3 [Artesunate] | 2.69 µM |
| CCC(=O)OCCOc1ccccc1 [Phenoxyethyl propionate] | > 90 µM |
| NNc1nnc(NN)c2ccccc12 [Dihydralazine] | > 50 µM |
| CC(C)(CC(=O)O)C(=O)O [2,2-Dimethylbutanedioic acid] | > 90 µM |
| C=CCCCCCCCCO [9-Decen-1-ol] | > 90 µM |
| COC(=O)CCC(=O)O [Monomethyl succinate] | > 90 µM |
| COc1ccccc1NC(=O)c1cc2ccccc2cc1O [3-Hydroxy-2-naphthoic o-anisidide] | > 90 µM |
| C[C@]12CCC(=O)C=C1CC[C@@H]1[C@@H]2[C@@H](O)C[C@@]2(C)[C@H]1CC[C@]2(O)C(=O)CO [Hydrocortisone] | > 90 µM |
| COC(=O)c1ccccc1 [Methyl benzoate] | > 90 µM |
| CC1(C)S[C@@H]2[C@H](NC(=O)COc3ccccc3)C(=O)N2[C@H]1C(=O)O [Penicillin VK] | > 90 µM |
| Cn1cc(C(=O)[C@@H]2CCc3nc[nH]c3C2)c2ccccc21 [Ramosetron hydrochloride] | > 50 µM |
| CCC(=O)[C@@]1(C)[C@H](C)C[C@H]2[C@@H]3CCC4=CC(=O)C=C[C@]4(C)[C@H]3[C@@H](O)C[C@@]21C [Rimexolone] | > 20 µM |
| CSc1nnc(C(C)(C)C)c(=O)n1N [Metribuzin] | > 90 µM |
| N[C@H](CC(=O)O)C(=O)O [D-Aspartic acid] | > 50 µM |
| O=C(Oc1ccccc1)c1cccc(C(=O)Oc2ccccc2)c1 [Diphenyl isophthalate] | > 100 µM |
| CC(=O)O[C@@H]1C[C@@H]2CC[C@@]1(C)C2(C)C [Bornyl acetate] | > 90 µM |
| NC(=S)C(N)=S [Dithiooxamide] | > 90 µM |
| CO[SiH](C)C [Methylpolysilicone] | > 100 µM |
| CC1(C)O[C@@H]2C[C@H]3[C@@H]4CCC5=CC(=O)C=C[C@]5(C)[C@H]4[C@@H](O)C[C@]3(C)[C@]2(C(=O)CO)O1 [Desonide] | > 50 µM |
| CO/N=C(\C(=O)N[C@@H]1C(=O)N2C(C(=O)O)=C(COC(C)=O)CS[C@H]12)c1csc(N)n1 [Cefotaxime sodium] | > 50 µM |
| C[C@]1(Cn2ccnn2)[C@H](C(=O)O)N2C(=O)C[C@H]2S1(=O)=O [Tazobactam sodium] | > 50 µM |
| CN(C)[C@@H]1C(=O)C(C(N)=O)=C(O)[C@@]2(O)C(=O)C3=C(O)c4c(O)cccc4[C@@](C)(O)[C@H]3[C@H](O)[C@@H]12 [Oxytetracycline] | > 90 µM |

Same assay, conditions: rat, gh3-tre-luc cells, AC50 (uM) modified / 1000, Tox21_110001=Tox21_111618; viability, 1 nM T3 present, 24 h

| Compound | CC50 at 24 h |
| --- | --- |
| NNc1ccccc1 [Phenylhydrazine hydrochloride] | > 50 µM |

Same assay, conditions: rat, gh3-tre-luc cells, AC50 (uM) modified / 1000, Tox21_110001=Tox21_111647; viability, 1 nM T3 present, 24 h

| Compound | CC50 at 24 h |
| --- | --- |
| C[C@]12C=CC(=O)C=C1CC[C@@H]1[C@@H]2CC[C@@]2(C)[C@H]1CC[C@]2(C)O [Methandrostenolone] | > 50 µM |

Same assay, conditions: rat, gh3-tre-luc cells, AC50 (uM) modified / 1000, Tox21_110001=Tox21_112153; viability, 1 nM T3 present, 24 h

| Compound | CC50 at 24 h |
| --- | --- |
| CCC(C)(S(=O)(=O)CC)S(=O)(=O)CC [Sulfonethylmethane] | > 50 µM |

Same assay, conditions: rat, gh3-tre-luc cells, AC50 (uM) modified / 1000, Tox21_110001=Tox21_113080; viability, 1 nM T3 present, 24 h

| Compound | CC50 at 24 h |
| --- | --- |
| COP(=S)(OC)Oc1ccc(S(N)(=O)=O)cc1 [Cythioate] | > 50 µM |

Same assay, conditions: rat, gh3-tre-luc cells, AC50 (uM) modified / 1000, Tox21_110001=Tox21_200693; viability, 1 nM T3 present, 24 h

| Compound | CC50 at 24 h |
| --- | --- |
| Cn1c(N)nc2c3cccnc3ccc21 [2-Amino-3-methyl-3H-imidazo[4,5-f]quinoline] | 36.1 µM |

Same assay, conditions: rat, gh3-tre-luc cells, AC50 (uM) modified / 1000, Tox21_110001=Tox21_202198; viability, 1 nM T3 present, 24 h

| Compound | CC50 at 24 h |
| --- | --- |
| NNc1ccccc1 [Phenylhydrazine hydrochloride] | 40.6 µM |

Same assay, conditions: rat, gh3-tre-luc cells, AC50 (uM) modified / 1000, Tox21_110001=Tox21_302063; viability, 1 nM T3 present, 24 h

| Compound | CC50 at 24 h |
| --- | --- |
| CCOC(=O)CC(=O)CCl [Ethyl 4-chloro-3-oxobutanoate] | 76.9 µM |

Same assay, conditions: rat, gh3-tre-luc cells, AC50 (uM) modified / 1000, Tox21_110001=Tox21_302936; viability, 1 nM T3 present, 24 h

| Compound | CC50 at 24 h |
| --- | --- |
| NNc1ccccc1 [Phenylhydrazine hydrochloride] | 66.7 µM |
